Assays:
[1] = test system: primary human fibroblasts derived from IPF patients (LL29 cells) treated with TGF-β1; experiment: Inhibition of the fibrotic process: αSMA staining in TGF-β1 treated primary human fibroblasts from IPF patients (LL29 cells); assay type: cell-based; details: Fibroblast, 96 h, TGF-β1 20 ng/mL, 4 days; for EC50: % αSMA positive cells
In short: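 LL29 cells plated in F12 with 1% FBS, compounds added as 11-point 1:2 series (10 μM to 1.87 nM, 0.1% DMSO), then TGF-β1 20 ng/mL; 4 days at 37 °C. Fixed, αSMA immunostained, imaged; SYTOX-positive cells excluded. % αSMA-positive cells normalized to TGF-β1 wells; EC50 by non-linear regression, or % inhibition at 10 μM.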

IL-6 (THP-1 cells) = experiment: IL-6 inhibition in LPS-stimulated THP-1 human monocyte cells (HTRF); assay type: cell-based; details: LPS 500 ng/mL; for EC50: 22 hours, IL6 HTRF; for inhibition at 10 µM: given where EC50 >10 μM, read-out: percent inhibition at 10 μM
In short: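 THP-1 cells, serum-reduced (1% FBS) for 24 h, were preincubated with compound (10-point 1:3 series from 10 μM, 0.1% DMSO) for 2 h, then stimulated with 500 ng/mL LPS for 22 h at 37° C. IL-6 was read by HTRF (665/620 nm ratio) and normalized to DMSO. EC50 from four-parameter fit; % inhibition at 10 μM given if EC50 >10 μM.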

Compound | EC50 [1] | EC50 (IL-6 (THP-1 cells)) | inhibition at 10 µM (IL-6 (THP-1 cells)) | inhibition at 10 µM ([1]; given where EC50 >10 μM, 10 μM, read-out: percent inhibition at 10 μM)
CC(C)(C)C(=O)Nc1cncc(-c2ccc3[nH]nc(-c4cc5c(-c6cccc(F)c6)cccc5[nH]4)c3n2)c1 [Compound 8, N-(5-(3-(4-(3-Fluorophenyl)-1H-indol-2-yl)-1H-pyrazolo[4,3-b]pyridin-5-yl)pyridin-3-yl)pivalamide] | 3670 nM | 2720 nM |  | 
CN(C)Cc1cncc(-c2ccc3[nH]nc(-c4cc5c(-c6ccc(F)cc6)cccc5[nH]4)c3n2)c1 [Compound 41, 1-(5-(3-(4-(4-Fluorophenyl)-1H-indol-2-yl)-1H-pyrazolo[4,3-b]pyridin-5-yl)pyridin-3-yl)-N,N-dimethylmethanamine] | 544 nM | 549 nM |  | 
Fc1ccc(-c2cccc3[nH]c(-c4n[nH]c5ccc(-c6cncnc6)nc45)cc23)cc1 [Compound 55, 3-(4-(4-Fluorophenyl)-1H-indol-2-yl)-5-(pyrimidin-5-yl)-1H-pyrazolo[4,3-b] pyridine] | 890 nM | 103 nM |  | 
Fc1ccccc1-c1cccc2[nH]c(-c3n[nH]c4ccc(-c5cncc(CN6CCCCC6)c5)nc34)cc12 [Compound 71, 3-(4-(2-Fluorophenyl)-1H-indol-2-yl)-5-(5-(piperidin-1-ylmethyl)pyridin-3-yl)-1H-pyrazolo[4,3-b]pyridine] | 725 nM | 271 nM |  | 
Fc1ccccc1-c1cccc2[nH]c(-c3n[nH]c4ccc(-c5cncc(CNCc6ccccc6)c5)nc34)cc12 [Compound 80, N-Benzyl-1-(5-(3-(4-(2-fluorophenyl)-1H-indol-2-yl)-1H-pyrazolo[4,3-b]pyridin-5-yl)pyridin-3-yl)methanamine] | 2490 nM | 6730 nM |  | 
c1cncc(-c2ccc3[nH]nc(-c4cc5c(-c6cccnc6)cccc5[nH]4)c3n2)c1 [Compound 88, 5-(Pyridin-3-yl)-3-(4-(pyridin-3-yl)-1H-indol-2-yl)-1H-pyrazolo[4,3-b] pyridine] | 88 nM | 31 nM |  | 
CN(C)Cc1cncc(-c2ccc3[nH]nc(-c4cc5c(-c6cccnc6)cccc5[nH]4)c3n2)c1 [Compound 97, N,N-Dimethyl-1-(5-(3-(4-(pyridin-3-yl)-1H-indol-2-yl)-1H-pyrazolo[4,3-b]pyridin-5-yl)pyridin-3-yl)methanamine] | 451 nM | 154 nM |  | 
Nc1cncc(-c2ccc3[nH]nc(-c4cc5c(-c6ccncc6)cccc5[nH]4)c3n2)c1 [Compound 115, 5-(3-(4-(Pyridin-4-yl)-1H-indol-2-yl)-1H-pyrazolo[4,3-b]pyridin-5-yl) pyridin-3-amine] | 41 nM | 52 nM |  | 
Cc1ccncc1-c1ccc2[nH]nc(-c3cc4c(-c5ccncc5)cccc4[nH]3)c2n1 [Compound 117, 5-(4-Methylpyridin-3-yl)-3-(4-(pyridin-4-yl)-1H-indol-2-yl)-1H-pyrazolo [4,3-b]pyridine] | 197 nM | 21 nM |  | 
c1cc(-c2ccncc2)c2cc(-c3n[nH]c4ccc(-c5cncc(CN6CCCCC6)c5)nc34)[nH]c2c1 [Compound 127, 5-(5-(Piperidin-1-ylmethyl)pyridin-3-yl)-3-(4-(pyridin-4-yl)-1H-indol-2-yl)-1H-pyrazolo[4,3-b]pyridine] | 8900 nM | 483 nM |  | 
c1cc(-c2ccncc2)c2cc(-c3n[nH]c4ccc(-c5cncc(CNCC6CCCC6)c5)nc34)[nH]c2c1 [Compound 137, 1-Cyclopentyl-N-((5-(3-(4-(pyridin-4-yl)-1H-indol-2-yl)-1H-pyrazolo[4,3-b]pyridin-5-yl)pyridin-3-yl)methyl)methanamine] | 701 nM | 3240 nM |  | 
c1ccc(-c2ccc3[nH]nc(-c4cc5c(-c6ccncc6)cccc5[nH]4)c3n2)nc1 [Compound 140, 5-(Pyridin-2-yl)-3-(4-(pyridin-4-yl)-1H-indol-2-yl)-1H-pyrazolo[4,3-b] pyridine] | 520 nM | 249 nM |  | 
FC1(F)CCN(Cc2cncc(-c3ccc4[nH]nc(-c5cc6c(-c7ccccn7)cccc6[nH]5)c4n3)c2)C1 [Compound 166, 5-(5-((3,3-Difluoropyrrolidin-1-yl)methyl)pyridin-3-yl)-3-(4-(pyridin-2-yl)-1H-indol-2-yl)-1H-pyrazolo[4,3-b]pyridine] | 164 nM | 306 nM |  | 
c1ccc(-c2cccc3[nH]c(-c4n[nH]c5ccc(-c6cncnc6)nc45)cc23)nc1 [Compound 167, 3-(4-(Pyridin-2-yl)-1H-indol-2-yl)-5-(pyrimidin-5-yl)-1H-pyrazolo[4,3-b] pyridine] | 201 nM | > 10000 nM | 12.8% | 
CCCCC(=O)Nc1cncc(-c2ccc3[nH]nc(-c4cc5c(N6CCCCC6)cccc5[nH]4)c3n2)c1 [Compound 187, N-(5-(3-(4-(Piperidin-1-yl)-1H-indol-2-yl)-1H-pyrazolo[4,3-b]pyridin-5-yl)pyridin-3-yl)pentanamide] | 2040 nM | 85 nM |  | 
c1ccc(-c2ccc3[nH]nc(-c4cc5c(N6CCCCC6)cccc5[nH]4)c3n2)nc1 [Compound 196, 3-(4-(Piperidin-1-yl)-1H-indol-2-yl)-5-(pyridin-2-yl)-1H-pyrazolo[4,3-b] pyridine] | > 10000 nM | 1860 nM |  | 5.2%
Cc1ccncc1-c1ccc2[nH]nc(-c3cc4c(N5CCN(C)CC5)cccc4[nH]3)c2n1 [Compound 229, 3-(4-(4-Methylpiperazin-1-yl)-1H-indol-2-yl)-5-(4-methylpyridin-3-yl)-1H-pyrazolo[4,3-b]pyridine] | 4920 nM | 1280 nM |  | 
CN1CCN(c2cccc3[nH]c(-c4n[nH]c5ccc(-c6cncc(NC(=O)c7ccccc7)c6)nc45)cc23)CC1 [Compound 235, N-(5-(3-(4-(4-Methylpiperazin-1-yl)-1H-indol-2-yl)-1H-pyrazolo[4,3-b]pyridin-5-yl)pyridin-3-yl)benzamide] | 1690 nM | 741 nM |  | 
CN1CCN(c2cccc3[nH]c(-c4n[nH]c5ccc(-c6cncnc6)nc45)cc23)CC1 [Compound 251, 3-(4-(4-Methylpiperazin-1l-yl)-1H-indol-2-yl)-5-(pyrimidin-5-yl)-1H-pyrazolo[4,3-b]pyridine] | 7790 nM | 751 nM |  | 
c1cncc(-c2ccc3[nH]nc(-c4cc5ccccc5[nH]4)c3n2)c1 [Compound 256, 3-(1H-Indol-2-yl)-5-(pyridin-3-yl)-1H-pyrazolo[4,3-b]pyridine] | 1140 nM | 13 nM |  | 
CN(C)Cc1cncc(-c2ccc3[nH]nc(-c4cc5ccccc5[nH]4)c3n2)c1 [Compound 265, 1-(5-(3-(1H-Indol-2-yl)-1H-pyrazolo[4,3-b]pyridin-5-yl)pyridin-3-yl)-N,N-dimethylmethanamine] | 521 nM | > 10000 nM | 0% | 
FC1(F)CCN(Cc2cncc(-c3ccc4[nH]nc(-c5cc6ccccc6[nH]5)c4n3)c2)C1 [Compound 278, 5-(5-((3,3-Difluoropyrrolidin-1-yl)methyl)pyridin-3-yl)-3-(1H-indol-2-yl)-1H-pyrazolo[4,3-b]pyridine] | 90 nM | 207 nM |  | 
CN(C)c1cncc(-c2ccc3[nH]nc(-c4cc5c(-c6ccoc6)cccc5[nH]4)c3n2)c1 [Compound 315, 5-(3-(4-(Furan-3-yl)-1H-indol-2-yl)-1H-pyrazolo[4,3-b]pyridin-5-yl)-N,N-dimethylpyridin-3-amine] | 631 nM | 1370 nM |  | 
c1cc(-c2ccoc2)c2cc(-c3n[nH]c4ccc(-c5cncc(CNCC6CCCC6)c5)nc34)[nH]c2c1 [Compound 333, 1-Cyclopentyl-N-((5-(3-(4-(furan-3-yl)-1H-indol-2-yl)-1H-pyrazolo[4,3-b]pyridin-5-yl)pyridin-3-yl)methyl)methanamine] | 955 nM | 3570 nM |  | 
FC1(F)CCN(Cc2cncc(-c3ccc4[nH]nc(-c5cc6c(-c7cccs7)cccc6[nH]5)c4n3)c2)C1 [Compound 362, 5-(5-((3,3-Difluoropyrrolidin-1-yl)methyl)pyridin-3-yl)-3-(4-(thiophen-2-yl)-1H-indol-2-yl)-1H-pyrazolo[4,3-b]pyridine] | 1290 nM | 6340 nM |  | 
CN(C)CCNc1cc(F)cc(-c2cccc3[nH]c(-c4n[nH]c5ccc(-c6cccnc6)nc45)cc23)c1 [Compound 452, N^1-(3-Fluoro-5-(2-(5-(pyridin-3-yl)-1H-pyrazolo[4,3-b]pyridin-3-yl)-1H-indol-4-yl)phenyl)-N^2,N^2-dimethylethane-1,2-diamine] | 38 nM | 68 nM |  | 
CN(C)CCNc1cc(F)cc(-c2cccc3[nH]c(-c4n[nH]c5ccc(-c6cncc(CN7CCCCC7)c6)nc45)cc23)c1 [Compound 463, N^1-(3-Fluoro-5-(2-(5-(5-(piperidin-1-ylmethyl)pyridin-3-yl)-1H-pyrazolo [4,3-b]pyridin-3-yl)-1H-indol-4-yl)phenyl)-N^2,N^2-dimethylethane-1,2-diamine] | 772 nM | 209 nM |  | 
CN(C)CCNc1cc(F)cc(-c2cccc3[nH]c(-c4n[nH]c5ccc(-c6cncnc6)nc45)cc23)c1 [Compound 475, N^1-(3-Fluoro-5-(2-(5-(pyrimidin-5-yl)-1H-pyrazolo[4,3-b]pyridin-3-yl)-1H-indol-4-yl)phenyl)-N^2,N^2-dimethylylethane-1,2-diamine] | 306 nM | 18 nM |  | 
